Molecular target: gamma-aminobutyric acid type A (GABAA) receptor α1(L264T)β2γ2L (Homo sapiens, UniProt P14867+P47870, P14867:L291T)
Test: cell-based

Sequence of gamma-aminobutyric acid type A (GABAA) receptor α1(L264T)β2γ2L (P14867 28-456 L291T): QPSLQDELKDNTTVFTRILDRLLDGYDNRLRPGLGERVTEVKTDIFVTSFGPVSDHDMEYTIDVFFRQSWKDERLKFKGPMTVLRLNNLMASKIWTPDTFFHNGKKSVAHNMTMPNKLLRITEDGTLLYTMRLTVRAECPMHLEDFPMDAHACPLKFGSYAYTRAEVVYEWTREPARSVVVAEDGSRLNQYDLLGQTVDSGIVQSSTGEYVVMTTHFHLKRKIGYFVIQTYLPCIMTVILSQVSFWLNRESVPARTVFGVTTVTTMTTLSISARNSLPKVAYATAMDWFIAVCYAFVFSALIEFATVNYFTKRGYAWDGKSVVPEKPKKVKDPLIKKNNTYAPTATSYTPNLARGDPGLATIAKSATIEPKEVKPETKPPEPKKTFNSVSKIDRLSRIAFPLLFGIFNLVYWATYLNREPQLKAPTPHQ
Sequence of gamma-aminobutyric acid type A (GABAA) receptor α1(L264T)β2γ2L (P47870 26-512): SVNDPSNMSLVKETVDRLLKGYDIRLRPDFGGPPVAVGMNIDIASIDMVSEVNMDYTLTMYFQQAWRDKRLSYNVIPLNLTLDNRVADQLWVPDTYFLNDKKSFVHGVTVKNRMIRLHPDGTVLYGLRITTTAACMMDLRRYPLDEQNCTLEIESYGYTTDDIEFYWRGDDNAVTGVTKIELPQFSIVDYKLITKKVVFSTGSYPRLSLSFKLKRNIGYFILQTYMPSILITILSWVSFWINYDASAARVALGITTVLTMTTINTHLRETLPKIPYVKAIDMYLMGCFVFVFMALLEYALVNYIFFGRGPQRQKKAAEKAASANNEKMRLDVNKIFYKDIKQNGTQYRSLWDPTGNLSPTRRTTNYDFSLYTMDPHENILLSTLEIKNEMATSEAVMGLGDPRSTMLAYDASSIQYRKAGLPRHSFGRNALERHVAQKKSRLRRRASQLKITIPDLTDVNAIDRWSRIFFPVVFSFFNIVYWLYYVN
Sequence of gamma-aminobutyric acid type A (GABAA) receptor α1(L264T)β2γ2L (P18507 40-475 partner): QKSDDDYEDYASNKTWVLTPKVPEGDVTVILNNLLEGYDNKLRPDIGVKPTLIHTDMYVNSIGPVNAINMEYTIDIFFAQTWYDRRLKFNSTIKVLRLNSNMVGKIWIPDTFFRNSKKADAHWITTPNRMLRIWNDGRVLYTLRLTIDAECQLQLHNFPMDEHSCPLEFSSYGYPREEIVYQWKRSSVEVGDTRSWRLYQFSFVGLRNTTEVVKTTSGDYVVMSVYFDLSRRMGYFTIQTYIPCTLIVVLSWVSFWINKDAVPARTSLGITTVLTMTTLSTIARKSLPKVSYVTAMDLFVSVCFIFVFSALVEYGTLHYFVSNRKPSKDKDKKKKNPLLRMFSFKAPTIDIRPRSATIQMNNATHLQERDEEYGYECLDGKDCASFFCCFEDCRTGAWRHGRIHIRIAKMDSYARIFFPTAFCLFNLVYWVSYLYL

Row | SMILES | EC50 [µM]
1 | C[C@H](c1ccccc1)n1cncc1C(=O)OCCC(=O)O [MOC-ECA] | 3500 ± 630
2 | COC(=O)CCOC(=O)c1cncn1[C@H](C)c1ccccc1 [MOC-etomidate, methoxycarbonyl etomidate] | 10 ± 2.5

— paper PMC3291806 (2011)
